According to PMC10451034, “Highly Efficient Photosensitizers with Molecular Vibrational Torsion for Cancer Photodynamic Therapy” (ACS Central Science, 2023):

Experiments:
HepG2 cells = assay: MTT cytotoxicity assay, HepG2; format: cell-based, human; details: for surviving cells: HepG2, dark, concentration around 160 μM; for IC50: Homo sapiens
Source text: To further quantitatively explore the in vitro anticancer potency of QTCy7-R, the methyl thiazolyltetrazolium (MTT) assay was employed to detect cell viability. […] Next, we evaluated the cytotoxicity under dark conditions of this series of compounds at high concentrations (Figure 9e), as due to the characteristics of mitochondrial accumulation, QTCy7-Me and QTCy7-Ph might lead to mitochondrial depolarization and apoptosis at high concentrations. However, its IC50 value could still reach about 60 μM, which was almost […] than those of all cyanine photosensitizers reported. […] The photocytotoxicity index value (dark IC50/light IC50) of QTCy7-Ac was >500, manifesting that QTCy7-Ac is a PS with high efficacy but low cytotoxicity, which is extremely promising in clinical application. […]
Cytotoxicity was tested by the reduction of methyl thiazolyl tetrazolium to formazan by succinic acid dehydrogenase in the mitochondria of living cells (MTT assay). HepG2 cells, MCF7 cells and 4T1 cells were seeded to 96-well microplates (Nunc, Denmark) with a density of 1 × 10^5 cells/mL cells in 100 μL DMEM medium and incubated at 37 °C for 24 h. When the cell density reached about 70%, the QTCy7-R with different concentrations (4, 3, 2, 1.5, 1, 0.75, 0.5, 0.25, 0 μM) in PBS were added to the wells of cells in dark condition, respectively. For light groups, the cell incubation conditions were the same as those of the dark group and the cells were further incubated for 2 h, subsequently, the cells were subjected to 660 nm irradiation (20 mW/cm2) for different time (10 min, 5 min and 2.5 min) corresponding to different light doses (12 J/cm2, 6 J/cm2 and 3 J/cm2). Then all the cells were incubated for 12 h, after which the MTT solution in DMEM (0.5 mg/ml, 100 μL) was added to each well and the cells were incubated at 37 °C for another 4 h. The MTT solution was carefully removed and 100 μL DMSO was added to dissolve formazan, and the absorbance of each well was measured by a multifunctional microplate reader at 570 nm and 630 nm. The cell viability was obtained by the following equation: […]
Where “OD” represent the absorbance at 570 nm and 630 nm, “ps” and “control” represent experimental groups and control groups, respectively. […]

[1] = Singlet oxygen quantum yield by DPBF decay curve method; format: physicochemical; details: for ΦΔ, singlet oxygen quantum yield: methylene blue as standard, 660 nm irradiation
Experimental: Afterward, the singlet oxygen yields of the series of molecules were preliminarily measured and analyzed by the 1,3-diphenylisobenzofuran (DPBF) decay curve method (Figures 2d,e and S2). […] Meanwhile, in order to exclude the effect of the rigid structure, ΦΔ of a Cy7-like reference molecule (TCy7C) with a rigidified structure but absence of an oxygen atom was measured. The singlet oxygen yield of TCy7C was 2.2%, even lower than that of TCy7 under the same conditions (Figure S3). […]
Photoexcited singlet oxygen production was detected by employed 1,3-diphenylisobenzofuran (DPBF) as the indicator. The absorbance of DPBF at 415 nm was regulated to about 1.0 in DCM. And the samples were irradiated with 660 nm light for various times, then the absorption spectra of different time nodes were recorded.
The singlet oxygen quantum yield (ΦΔ) was calculated by the following equation:
Where “Φ” represent the singlet oxygen quantum yield , “sam” and “std” represent QTCy7-R and MB, respectively. “m” is the slope of the absorbance of DPBF at 415 nm with time, F=1–10-O.D. (O.D. is the absorbance of samples at 660 nm). […]

[2] = UV-vis absorption, fluorescence emission, absolute fluorescence quantum yield and fluorescence lifetime; format: physicochemical; details: for Δλ, Stokes shift / λem, maximum emission wavelength / τS, fluorescence lifetime: in dichloromethane; for UV-vis absorption maximum in PBS: phosphate-buffered solution (PBS); for molar extinction coefficient: at absorption peak about 710 nm, DCM
Experimental: First, the UV–vis absorption and fluorescence emission spectra of the series of compounds were measured and analyzed. […] Concurrently, the Stokes shifts of all four compounds were more than 60 nm (Figure 2a,b and Table 1), which could effectively improve the signal-to-noise ratio (SNR) of fluorescence compared to the ordinary TCy7. The fluorescence lifetimes of all four compounds were within 2 ns, indicating no delayed fluorescence generation (Figure 2c and Table 1). […]
Materials and Instrumentation
All the general chemicals used in this paper are purchased from Energy Chemical Co. and Innochem Chemical Co. unless otherwise specified. All solvents were […]
analytically pure. […]
All the other solvents and reagents used in this study were of analytical grade. All the BALB/c mice were purchased from Liaoning […]
III 500 spectrometers. Absorption and emission spectra for all the compounds were achieved on the Agilent Technologies CARY 60 UV -Vis spectrophotometer and VAEIAN CARY Eclipse fluorescence spectrop hotometer (Serial No. FL0812 -M018), […]
respectively. Unless otherwise specified, all spectroscopic tests were performed in a quartz cell (10×10 mm). Fluorescence quantum yield of all the compounds were measured on the HAMAMATSU absolute fluorescence quantum yield spectrometer (Serial No. C11347). Triplet lifetime of compounds were acquired on LP980 laser flash photolysis spectrometer (Edinburgh Instruments, U.K.). The cell confocal laser scanning microscope (CLSM) images were all obtained by using Olympus FV3000 confocal laser scanning microscope. […]
Figure 4, Figure S6 and Figure S7). The spin-orbital coupling (SOC) values between the S1/S1V and T2 were calculated with ORCA 4.13. Hole-Electron analysis was carried […]
ISC rate constants calculation […]
Triplet lifetime measurements
The triplet life of QTCy7-R was measured by LP980 laser flash photolysis spectrometer (Edinburgh Instruments Ltd.) in combination with a Nd:YAG laser (Surelite I-10, Continuum Electro-Optics, Inc.). The oxygen in the sample was removed by aerating nitrogen for 30 min. The samples (5 μM) were excited by a 610 nm laser pulse (1 Hz, 100 mJ per pulse, fwhm ≈ 7 ns) at 300 K. The triplet state decay kinetics were measured at the maximum absorption wavelengths of each compound.
Fluorescence lifetime and femtosecond time-resolved transient absorption spectra […]
The fluorescence lifetimes and femtosecond time-resolved transient absorption spectra of dyes were recorded on a freshly prepared samples using the time-correlated single photon counting (TCSPC) method (PicoQuant PicoHarp 300) at 300 K. The concentration is 10 μM, solvent is DCM.
Hepatoma carcinoma cells (HepG-2 cells), human mammary carcinoma (MCF-7) and mouse breast cancer cells (4T1) were maintained in Dulbecco’s modified Eagle’s

[3] = HepG2, light or radiation study, HepG2, 660 nm irradiation 12 J/cm^2

Compound	surviving cells (HepG2 cells)	IC50 (HepG2 cells; [3]) [nM]	ΦΔ, singlet oxygen quantum yield ([1]; in dichloromethane)	ΦF, absolute fluorescence quantum yield [2] [%]	Δλ, Stokes shift [2] [nm]	λem, maximum emission wavelength [2] [nm]	τS, fluorescence lifetime [2] [ns]	UV-vis absorption maximum in PBS [2] [nm]	IC50 (HepG2 cells; HepG2, HepG2, dark conditions) [nM]	molar extinction coefficient [2]	photocytotoxicity index (dark IC50/light IC50) (HepG2 cells; HepG2)	IC50 (HepG2 cells; HepG2, light or radiation study, HepG2, 660 nm irradiation 3 J/cm^2) [nM]	IC50 (HepG2 cells; HepG2, light or radiation study, HepG2, 660 nm irradiation 6 J/cm^2) [nM]	enhancement compared with commercial Ce6 photosensitizer (HepG2 cells; cell destruction at low light doses) [fold]	ΦΔ, singlet oxygen yield ([1]; in dichloromethane, DPBF method) [%]	singlet oxygen yield relative to TCy7 ([1]; under NIR irradiation) [fold]
CCN1/C(=C/C=C2\C=C(C=O)C=C(/C=C/c3sc4ccccc4[n+]3CC)C2=O)Sc2ccccc21 [QTCy7-CHO]	70–80%	~1800	0.263	28.0	60	690	1.82	552	–	–	–	–	–	–	–	–
CCN1/C(=C/C=C2\C=C(c3ccccc3)C=C(/C=C/c3sc4ccccc4[n+]3CC)C2=O)Sc2ccccc21 [QTCy7-Ph]	–	~300	0.212	17.2	72	783	1.90	613	~60000	approximately 4 × 10^4	–	–	–	–	–	–
CCOC(=O)C1=C/C(=C\C=C2/Sc3ccccc3N2CC)C(=O)C(/C=C/c2sc3ccccc3[n+]2CC)=C1 [QTCy7-Ac]	70–80%	~300	0.338	31.4	67	703	1.97	610	–	–	> 500	~2000	~1200	11	33.8	13
CCN1/C(=C/C=C2\C=C(C)C=C(/C=C/c3sc4ccccc4[n+]3CC)C2=O)Sc2ccccc21 [QTCy7-Me]	–	~900	0.225	16.7	66	780	1.70	701	~60000	approximately 4 × 10^4	–	–	–	–	–	–
